For 49 substances, normalised inhibition (eCFP-eYFP dual reporter) results are on record in the OligoGym collection.

Oligonucleotides are written 5' to 3', each unit as a sugar letter and its base; * is a phosphorothioate linkage, no mark a phosphodiester; rarer units and linkages stand in square brackets, end groups in braces. Plain capitals give the bases only. d = 2'-deoxy (DNA); r = 2'-OH (RNA)
Further: test concentration or dose not given here.

One data set concerns the target UBE2H. Nature of the data set: reporter assay of Huesken 2005. The following applies: siRNA.
As for “sense rArArArArUrUrArArArGrArGrUrArCrArUrCrCdTdT / antisense rGrGrArUrGrUrArCrUrCrUrUrUrArArUrUrUrUdCdT”, the normalised inhibition (eCFP-eYFP dual reporter) came out at 70.5%.
Take “sense rArArArGrUrUrArGrArGrUrGrGrArCrCrUrArCdTdT / antisense rGrUrArGrGrUrCrCrArCrUrCrUrArArCrUrUrUdCdC”: the normalised inhibition (eCFP-eYFP dual reporter) was 50%.
Take “sense rArArArUrCrUrCrCrArUrCrUrArUrArGrGrArUdTdT / antisense rArUrCrCrUrArUrArGrArUrGrGrArGrArUrUrUdGdA”: the normalised inhibition (eCFP-eYFP dual reporter) was found to be 96.4%.
Take “sense rArArCrArCrCrArUrArUrGrArArGrGrCrGrGrAdTdT / antisense rUrCrCrGrCrCrUrUrCrArUrArUrGrGrUrGrUrUdCdC”: the normalised inhibition (eCFP-eYFP dual reporter) came to 67.8%.
Still for that read-out and setting: the same measure for “sense rArArCrCrCrCrArUrArGrArUrCrCrUrCrUrCrAdTdT / antisense rUrGrArGrArGrGrArUrCrUrArUrGrGrGrGrUrUdAdG”: 49.4%; for “sense rArArGrUrUrArGrArGrUrGrGrArCrCrUrArCrCdTdT / antisense rGrGrUrArGrGrUrCrCrArCrUrCrUrArArCrUrUdTdC”: 64.2%.
Take “sense rArArUrArUrArUrUrUrGrArGrUrCrCrUrUrCrCdTdT / antisense rGrGrArArGrGrArCrUrCrArArArUrArUrArUrUdGdG”: the normalised inhibition (eCFP-eYFP dual reporter) stood at 41.6%.
Still for that read-out and setting: the result for “sense rArCrArGrCrUrCrUrCrUrArUrGrArUrCrUrUrAdTdT / antisense rUrArArGrArUrCrArUrArGrArGrArGrCrUrGrUdCdC” reads 95.8%.

In another data set the target is UFC1. Description: reporter assay of Huesken 2005. As to conditions: siRNA.
On to “sense rCrCrUrGrArGrCrUrGrGrArUrGrGrArArArGrAdTdT / antisense rUrCrUrUrUrCrCrArUrCrCrArGrCrUrCrArGrGdAdA”, for which the normalised inhibition (eCFP-eYFP dual reporter) is 120%.
On the same count and under the same terms, the result for “sense rCrGrArGrUrUrUrGrArCrArUrUrCrCrUrArUrCdTdT / antisense rGrArUrArGrGrArArUrGrUrCrArArArCrUrCrGdAdT” reads 95.7%; that for “sense rCrGrUrCrArUrCrCrArArCrArCrArArArGrArGdTdT / antisense rCrUrCrUrUrUrGrUrGrUrUrGrGrArUrGrArCrGdCdC”, 86.3%; that for “sense rCrUrGrArCrGrGrArUrCrArUrUrUrCrArArArCdTdT / antisense rGrUrUrUrGrArArArUrGrArUrCrCrGrUrCrArGdGdC”, 65.7%.
Consider “sense rCrUrGrArUrCrUrGrArUrUrCrArGrArArGrGrGdTdT / antisense rCrCrCrUrUrCrUrGrArArUrCrArGrArUrCrArGdGdG”, for which the normalised inhibition (eCFP-eYFP dual reporter) amounted to 73.2%.
On to “sense rCrUrGrGrArGrUrCrCrArArCrArArGrGrArArGdTdT / antisense rCrUrUrCrCrUrUrGrUrUrGrGrArCrUrCrCrArGdTdC”, for which the normalised inhibition (eCFP-eYFP dual reporter) came to 66.3%.
Regarding “sense rCrUrGrGrGrUrCrCrArUrGrGrCrUrGrGrCrArGdTdT / antisense rCrUrGrCrCrArGrCrCrArUrGrGrArCrCrCrArGdCdC”, the normalised inhibition (eCFP-eYFP dual reporter) came out at 60.5%.
Regarding “sense rCrUrUrArUrCrCrGrGrUrArUrGrUrGrGrArGrAdTdT / antisense rUrCrUrCrCrArCrArUrArCrCrGrGrArUrArArGdGdG”, the normalised inhibition (eCFP-eYFP dual reporter) is 78.4%.
The same measure, in the same setting: the result for “sense rGrArArArUrArUrGrArGrUrUrUrGrArCrArUrCdTdT / antisense rGrArUrGrUrCrArArArCrUrCrArUrArUrUrUrCdAdG” reads 66.9%; that for “sense rGrArArCrUrCrGrGrUrGrGrUrUrUrGrGrArArAdTdT / antisense rUrUrUrCrCrArArArCrCrArCrCrGrArGrUrUrCdCdT”, 97.7%.
As to “sense rGrArArUrGrUrGrCrCrCrArArArUrUrUrGrGrAdTdT / antisense rUrCrCrArArArUrUrUrGrGrGrCrArCrArUrUrCdCdT”, the normalised inhibition (eCFP-eYFP dual reporter) was 67.9%.
Turning to “sense rGrArCrArGrCrArArArGrArUrGrUrArCrArGrGdTdT / antisense rCrCrUrGrUrArCrArUrCrUrUrUrGrCrUrGrUrCdTdT”, the normalised inhibition (eCFP-eYFP dual reporter) turned out to be 50.1%.
For “sense rGrArCrGrGrArUrCrArUrUrUrCrArArArCrCrUdTdT / antisense rArGrGrUrUrUrGrArArArUrGrArUrCrCrGrUrCdAdG”, the normalised inhibition (eCFP-eYFP dual reporter) came out at 123%.
Regarding “sense rGrArUrCrArUrUrUrCrArArArCrCrUrUrUrGrUdTdT / antisense rArCrArArArGrGrUrUrUrGrArArArUrGrArUrCdCdG”, the normalised inhibition (eCFP-eYFP dual reporter) turned out to be 98.8%.
With “sense rGrCrArArArGrArUrGrUrArCrArGrGrGrGrUrGdTdT / antisense rCrArCrCrCrCrUrGrUrArCrArUrCrUrUrUrGrCdTdG”, the normalised inhibition (eCFP-eYFP dual reporter) was determined as 108%.
On to “sense rGrCrArGrUrUrCrCrUrGrArGrCrUrGrGrArUrGdTdT / antisense rCrArUrCrCrArGrCrUrCrArGrGrArArCrUrGrCdAdA”, for which the normalised inhibition (eCFP-eYFP dual reporter) was found to be 80.1%.
Same read-out and setting: the result for “sense rGrCrCrArGrGrArArUrGrUrGrCrCrCrArArArUdTdT / antisense rArUrUrUrGrGrGrCrArCrArUrUrCrCrUrGrGrCdCdC” reads 77.2%; that for “sense rGrCrCrCrCrArGrArArArUrUrGrCrArGrUrUrCdTdT / antisense rGrArArCrUrGrCrArArUrUrUrCrUrGrGrGrGrCdAdG”, 61.7%; that for “sense rGrCrCrUrGrArCrGrGrArUrCrArUrUrUrCrArAdTdT / antisense rUrUrGrArArArUrGrArUrCrCrGrUrCrArGrGrCdAdT”, 117%.
Consider “sense rGrCrGrArCrUrGrArArGrGrArGrGrArArUrArUdTdT / antisense rArUrArUrUrCrCrUrCrCrUrUrCrArGrUrCrGrCdTdG”, for which the normalised inhibition (eCFP-eYFP dual reporter) was 107%.
Consider “sense rGrCrUrGrArCrArArCrGrArUrUrGrGrUrUrCrCdTdT / antisense rGrGrArArCrCrArArUrCrGrUrUrGrUrCrArGrCdAdT”, for which the normalised inhibition (eCFP-eYFP dual reporter) was determined as 78%.
As to “sense rGrCrUrGrGrCrArGrUrGrGrArArArUrCrCrCrUdTdT / antisense rArGrGrGrArUrUrUrCrCrArCrUrGrCrCrArGrCdCdA”, the normalised inhibition (eCFP-eYFP dual reporter) was determined as 48.5%.
Same read-out and setting: the same measure for “sense rGrGrArCrUrArGrCrUrCrArUrCrUrCrArUrGrGdTdT / antisense rCrCrArUrGrArGrArUrGrArGrCrUrArGrUrCrCdAdA”: 61.7%.
Turning to “sense rGrGrArUrGrGrArArArGrArCrArGrCrArArArGdTdT / antisense rCrUrUrUrGrCrUrGrUrCrUrUrUrCrCrArUrCrCdAdG”, the normalised inhibition (eCFP-eYFP dual reporter) worked out at 103%.
As for “sense rGrGrCrArArArArUrArUrGrCrCrUrGrArCrGrGdTdT / antisense rCrCrGrUrCrArGrGrCrArUrArUrUrUrUrGrCrCdAdC”, the normalised inhibition (eCFP-eYFP dual reporter) turned out to be 99.9%.
On the same count and under the same terms, the result for “sense rGrGrCrUrCrUrGrGrGrGrCrUrGrGrGrUrCrCrAdTdT / antisense rUrGrGrArCrCrCrArGrCrCrCrCrArGrArGrCrCdAdT” reads 69.9%; that for “sense rGrGrGrUrGrCrArGrCrGrArCrUrGrArArGrGrAdTdT / antisense rUrCrCrUrUrCrArGrUrCrGrCrUrGrCrArCrCrCdAdC”, 85.9%.
The same measure, in the same setting: the result for “sense rGrUrArUrArUrCrCrArUrGrArCrCrUrCrCrUrGdTdT / antisense rCrArGrGrArGrGrUrCrArUrGrGrArUrArUrArCdCdA” reads 96%; that for “sense rGrUrGrGrArGrArArCrArArCrArArGrArArUrGdTdT / antisense rCrArUrUrCrUrUrGrUrUrGrUrUrCrUrCrCrArCdAdT”, 68.9%.
On the same count and under the same terms, the result for “sense rUrArCrUrGrCrCrCrCrArGrArArArUrUrGrCrAdTdT / antisense rUrGrCrArArUrUrUrCrUrGrGrGrGrCrArGrUrAdGdT” reads 52.2%.
As to “sense rUrCrArGrUrCrCrCrUrUrArUrCrCrGrGrUrArUdTdT / antisense rArUrArCrCrGrGrArUrArArGrGrGrArCrUrGrAdTdA”, the normalised inhibition (eCFP-eYFP dual reporter) is 88.9%.
On to “sense rUrCrArUrCrCrArArCrArCrArArArGrArGrArAdTdT / antisense rUrUrCrUrCrUrUrUrGrUrGrUrUrGrGrArUrGrAdCdG”, for which the normalised inhibition (eCFP-eYFP dual reporter) was 93%.
“sense rUrGrArArArUrArUrGrArGrUrUrUrGrArCrArUdTdT / antisense rArUrGrUrCrArArArCrUrCrArUrArUrUrUrCrAdGdG”: the normalised inhibition (eCFP-eYFP dual reporter) is 75.3%.
On to “sense rUrGrArCrArArCrGrArUrUrGrGrUrUrCrCrGrAdTdT / antisense rUrCrGrGrArArCrCrArArUrCrGrUrUrGrUrCrAdGdC”, for which the normalised inhibition (eCFP-eYFP dual reporter) amounted to 76.1%.
Take “sense rUrGrArCrArUrUrCrCrUrArUrCrArCrArUrArUdTdT / antisense rArUrArUrGrUrGrArUrArGrGrArArUrGrUrCrAdAdA”: the normalised inhibition (eCFP-eYFP dual reporter) worked out at 115%.
As to “sense rUrGrCrCrCrCrArGrArArArUrUrGrCrArGrUrUdTdT / antisense rArArCrUrGrCrArArUrUrUrCrUrGrGrGrGrCrAdGdT”, the normalised inhibition (eCFP-eYFP dual reporter) came out at 44.9%.
On to “sense rUrGrGrCrArGrUrGrGrArArArUrCrCrCrUrGrAdTdT / antisense rUrCrArGrGrGrArUrUrUrCrCrArCrUrGrCrCrAdGdC”, for which the normalised inhibition (eCFP-eYFP dual reporter) is 71.4%.
“sense rUrGrGrGrUrCrCrArUrGrGrCrUrGrGrCrArGrUdTdT / antisense rArCrUrGrCrCrArGrCrCrArUrGrGrArCrCrCrAdGdC”: the normalised inhibition (eCFP-eYFP dual reporter) came to 35.2%.
For “sense rUrGrGrUrArUrArUrCrCrArUrGrArCrCrUrCrCdTdT / antisense rGrGrArGrGrUrCrArUrGrGrArUrArUrArCrCrAdGdC”, the normalised inhibition (eCFP-eYFP dual reporter) came out at 31.4%.
With “sense rUrGrGrUrUrCrCrGrArCrUrGrGrArGrUrCrCrAdTdT / antisense rUrGrGrArCrUrCrCrArGrUrCrGrGrArArCrCrAdAdT”, the normalised inhibition (eCFP-eYFP dual reporter) turned out to be 71.9%.
Still for that read-out and setting: the result for “sense rUrUrGrGrArArArArUrGrCrUrGrGrUrArUrArUdTdT / antisense rArUrArUrArCrCrArGrCrArUrUrUrUrCrCrArAdAdC” reads 56.8%.
